Reference: ChEMBL document CHEMBL1770149, “Semisynthesis of triptolide analogues: effect of γ-lactone and C-14 substituents on cytotoxic activities” (Bioorg Med Chem Lett, 2011)

How the values were obtained:
HT-29 = assay: Cytotoxicity against human HT-29 cells; format: functional, cell-based
A549 = assay: Cytotoxicity against human A549 cells; format: functional, cell-based

CC(C)[C@]12O[C@H]1[C@@H]1O[C@@]13[C@H]1CCC4=C(COC4=O)[C@@H]1C[C@@H]1O[C@@]13[C@H]2O
IC50 (HT-29): 0.078 µM | IC50 (A549): 1.69 µM

Cc1occ2c1CC[C@H]1[C@H]2C[C@@H]2O[C@@]23[C@H](O)[C@@]2(C(C)C)O[C@H]2[C@@H]2O[C@@]123
IC50 (HT-29): 2.01 µM | IC50 (A549): 7.85 µM

CCc1occ2c1CC[C@H]1[C@H]2C[C@@H]2O[C@@]23[C@H](O)[C@@]2(C(C)C)O[C@H]2[C@@H]2O[C@@]123
IC50 (HT-29): > 13.4 µM | IC50 (A549): > 13.4 µM

Cc1occ2c1CC[C@H]1[C@H]2C[C@@H]2O[C@]23[C@]12O[C@H]2[C@@H]1O[C@]1(C(C)C)[C@]3(C)O
IC50 (HT-29): > 13.4 µM | IC50 (A549): > 13.4 µM

Cc1occ2c1CC[C@H]1[C@H]2C[C@@H]2O[C@]23[C@]12O[C@H]2[C@@H]1O[C@]1(C(C)C)[C@@]3(C)O
IC50 (HT-29): > 13.4 µM | IC50 (A549): > 13.4 µM

CC(C)[C@]12O[C@H]1[C@@H]1O[C@@]13[C@H]1CCC4=C(COC4=O)[C@@H]1C[C@@H]1O[C@@]13[C@@]2(C)O
IC50 (HT-29): 0.022 µM | IC50 (A549): 0.35 µM

CC[C@@]1(O)[C@]23O[C@H]2C[C@H]2C4=C(CC[C@@H]2[C@@]32O[C@H]2[C@@H]2O[C@@]21C(C)C)C(=O)OC4
IC50 (HT-29): 0.39 µM | IC50 (A549): 2.83 µM

CC(C)[C@]12O[C@H]1[C@@H]1O[C@@]13[C@H]1CCC4=C(COC4=O)[C@@H]1C[C@@H]1O[C@@]13[C@]21CO1
IC50 (HT-29): 0.00065 µM | IC50 (A549): 0.053 µM

CCc1c2c(nc3ccc(O)cc13)-c1cc3c(c(=O)n1C2)COC(=O)[C@]3(O)CC [7-ETHYL-10-HYDROXYCAMPTOTHECIN]
IC50 (HT-29): 0.0059 µM | IC50 (A549): 0.047 µM

CC(=O)O[C@@]12CO[C@@H]1C[C@H](O)[C@@]1(C)C(=O)[C@H](O)C3=C(C)[C@@H](OC(=O)[C@H](O)[C@@H](NC(=O)OC(C)(C)C)c4ccccc4)C[C@@](O)([C@@H](OC(=O)c4ccccc4)[C@H]21)C3(C)C [DOCETAXEL]
IC50 (HT-29): 0.00075 µM | IC50 (A549): 0.0012 µM

CC(C)[C@]12O[C@H]1[C@@H]1O[C@]13[C@]1(O[C@H]1C[C@H]1C4=C(CC[C@@]13C)C(=O)OC4)[C@@H]2O [TRIPTOLIDE]
IC50 (HT-29): 0.0021 µM | IC50 (A549): 0.019 µM

CC(C)[C@]12O[C@H]1[C@@H]1O[C@@]13[C@@]1(C)CCC4=C(COC4=O)[C@@H]1C[C@@H]1O[C@@]13C2=O [TRIPTONIDE]
IC50 (HT-29): 0.0084 µM | IC50 (A549): 0.053 µM
